Several values for one entry are separate records, joined by “and”; a condition that tells them apart may be missing. Identical values can stand only once. Like-named read-outs stand apart in the source and are kept apart here.

The test system of one data set is normal human melanocytes. As to the kind of experiment: Depigmenting activity: reduction of melanin production in normal human melanocytes in vitro. The note with it: Melanocyte. It is filed as cell-based. The procedure:
The measurement of the depigmenting activity (reduction of melanin production) of compounds of formula (I) was performed by assaying normal human melanocytes in vitro as follows.
First of all, normal human melanocytes were cultured and dispensed into 384 wells. After 24 hours, the culture medium was replaced with a medium containing compounds of formula (I) to be evaluated. The cells were incubated for 72 hours before measurement of the final optical density, which measures the amount of melanin produced by the melanocytes. A dose effect was performed using a wide concentration range of the compounds evaluated. Thus, by making the concentrations and the measurements of melanin correspond, it is possible to determine an IC50 in μM: concentration at which 50% decrease in melanin synthesis is achieved.

In data set [1] the test system is pigmented reconstructed epidermis. As to the kind of experiment: Experiment on pigmented reconstructed epidermis (melanin versus solvent). It is filed as cell-based. The source says: Experiment on pigmented reconstructed epidermis
The nature of data set [2]: Stability of the compound (statement in the synthesis example). It is filed as physicochemical. The following applies: no conditions given.
Data set [3] concerns coculture of keratinocytes and melanocytes. As to the kind of experiment: Modulatory effect on melanogenesis and cytotoxicity in a coculture of keratinocytes and melanocytes. The following applies: for IC50: melanin optical density, read-out: IC50 (concentration for which 50% of the melanin synthesis is inhibited). It is filed as cell-based. The procedure: The modulatory effect on melanogenesis of each compound was measured according to the method described in the patent FR-A-2734825, and also in the article by R. Schmidt, P. Krien and M. Régnier, Anal. Biochem., 235(2), 113-18, 1996. This test is carried out on a coculture of keratinocytes and melanocytes. For the compounds tested, the following were determined: • the cytotoxicity, • the inhibitory activity on melanin synthesis, by estimating the melanin optical density, • the IC50 values (concentration for which 50% of the melanin synthesis is inhibited).

[4] abbreviates: Table 2 test campaign, normal human melanocytes, 72 hours incubation, concentration at which 50% decrease in melanin synthesis is achieved, maximum concentration tested 200 μM, read-out: IC50.
Setting [5] is: Homo sapiens, 72 h, Table 3 test campaign, normal human melanocytes, 72 hours incubation, 50% decrease in melanin synthesis, maximum concentration tested 200 μM, read-out: IC50.
[6] abbreviates: Homo sapiens, prior-art comparison compounds, compared with the Table 2 results, melanin synthesis in normal human melanocytes, read-out: IC50 value.

As for `CC(CCC(=O)OC[C@@H](O)[C@H](O)[C@@H](O)CO)c1ccc(O)cc1O` (stereo partly drawn) [Compound 32, 5-O-[4-(2,4-dihydroxyphenyl)pentanoyl]-D-xylitol], the IC50 in the data set with normal human melanocytes (setting [4]) came to 3.03 µM.

One may read the melting point as the temperature of the solid-liquid transition. The compound `COCCN(CCOC)C(=O)CCC(C)c1ccc(O)cc1O` (centres unmarked) [Compound 25, 4-(2,4-dihydroxyphenyl)-N,N-bis(2-methoxyethyl)pentanamide] displayed a melting point of 78 to 81 °C. Also, the IC50 in the data set on normal human melanocytes (setting [5]) turned out to be 5.27 µM.

As to `CCNC(=O)CCC(C)c1ccc(O)cc1O` (centres unmarked) [Compound 2, 4-(2,4-dihydroxyphenyl)-N-ethylpentanamide], the IC50 in the data set with normal human melanocytes (setting [4]) amounted to 0.824 µM. Further, the depigmenting efficiency entry in data set [1] (comparison with lucinol) is listed as “greater than lucinol”. The “Comparison of melanin with respect to the solvent (DMSO)” value in data set [1] (effective concentration 50 μM) is −26%. `CC(CCC(=O)O)c1ccc(O)cc1O` (centres unmarked) [Compound 1, 4-(2,4-dihydroxyphenyl)pentanoic Acid]: the IC50 in the data set with normal human melanocytes (setting [4]) turned out to be 4.8 µM. Further, the “stability of the compound” value in data set [2] is reported as “stable”. With `CCCCNC(=O)CCC(C)c1ccc(O)cc1O` (centres unmarked) [Compound 4, N-butyl-4-(2,4-dihydroxyphenyl)pentanamide], the IC50 in the data set on normal human melanocytes (setting [4]) was determined as 0.692 µM. On the same count and under the same terms, as for `CC(CCC(=O)NCCO)c1ccc(O)cc1O` (centres unmarked) [Compound 9, 4-(2,4-dihydroxyphenyl)-N-(2-hydroxyethyl)pentanamide], the figure is 0.636 µM. With `CC(CCC(=O)NCC(=O)O)c1ccc(O)cc1O` (centres unmarked) [Compound 14, N-[4-(2,4-dihydroxyphenyl)pentanoyl]glycine], the melting point was 59 to 65 °C. Also, in the data set on normal human melanocytes (setting [5]), the IC50 turned out to be 18.5 µM. The corresponding values for `CCOC(=O)[C@H](Cc1ccccc1)NC(=O)CCC(C)c1ccc(O)cc1O` (some centres unmarked) [Compound 22, ethyl N-[4-(2,4-dihydroxyphenyl)pentanoyl]phenylalaninate] are 51 to 59 °C and 8.33 µM. Regarding `CCOC(=O)[C@H](C)NC(=O)CCC(C)c1ccc(O)cc1O` (stereo partly drawn) [Compound 15, ethyl N-[4-(2,4-dihydroxyphenyl)pentanoyl]-L-alaninate], the melting point was 48 to 50 °C. Also, in the data set with normal human melanocytes (setting [4]), the IC50 was found to be 1.08 µM.

With `CC(CCC(=O)N[C@H](C)C(=O)O)c1ccc(O)cc1O` (stereo partly drawn) [Compound 18, N-[4-(2,4-dihydroxyphenyl)pentanoyl]-D-alanine], the melting point was in the range of 65 to 68 °C. The IC50 in the data set on normal human melanocytes (setting [4]) came out at 1.63 µM. In the case of `CCNC(=O)CCC(C)c1ccc(OC(C)=O)cc1OC(C)=O` (centres unmarked) [Compound 11, 4-[5-(ethylamino)-5-oxopentan-2-yl]benzene-1,3-diyl diacetate], the IC50 in the data set on normal human melanocytes (setting [4]) is 0.94 µM. With `CC(CCC(=O)N(C)CC(=O)O)c1ccc(O)cc1O` (centres unmarked) [Compound 28, N-[4-(2,4-dihydroxyphenyl)pentanoyl]-N-methylglycine], in the data set on normal human melanocytes (setting [5]), the IC50 came to 31.1 µM. `CC(CCC(=O)N1CCOCC1)c1ccc(O)cc1O` (centres unmarked) [Compound 29, 4-(2,4-dihydroxyphenyl)-1-(morpholin-4-yl)pentan-1-one]: the IC50 with normal human melanocytes (setting [5]) came to 1.82 µM; in the data set on normal human melanocytes (setting [4]), 2.94 µM. As to `COC(=O)CC(C)c1ccc(O)cc1O` (centres unmarked) [(B), reference compound], in the data set on normal human melanocytes (setting [6]), the IC50 was determined as 4.97 µM.

Take `CC(CCC(=O)NCCc1ccc(O)cc1)c1ccc(O)cc1O` (centres unmarked) [Compound 8, 4-(2,4-dihydroxyphenyl)-N-[2-(4-hydroxyphenyl)ethyl]pentanamide]: the IC50 with normal human melanocytes (setting [4]) was found to be 0.391 µM. In the case of `CCN(CCO)C(=O)CCC(C)c1ccc(O)cc1O` (centres unmarked) [Compound 26, 4-(2,4-dihydroxyphenyl)-N-ethyl-N-(2-hydroxyethyl)pentanamide], in the data set with normal human melanocytes (setting [4]), the IC50 is 1.96 µM. In data set [3], the cytotoxicity entry was “non-cytotoxic” and the IC50 was determined as 0.45 µM. Turning to `CCOC(=O)CCC(C)c1ccc(O)cc1O` (centres unmarked) [Compound 30, ethyl 4-(2,4-dihydroxyphenyl)pentanoate], in the data set on normal human melanocytes (setting [4]), the IC50 stood at 1.01 µM.

On to `CC(CCC(=O)NCC1CCCCC1)c1ccc(O)cc1O` (centres unmarked) [Compound 7, N-(cyclohexylmethyl)-4-(2,4-dihydroxyphenyl)pentanamide], for which, in the data set with normal human melanocytes (setting [4]), the IC50 amounted to 0.401 µM. Consider `CC(CCC(=O)NC1CCCCC1)c1ccc(O)cc1O` (centres unmarked) [Compound 6, N-cyclohexyl-4-(2,4-dihydroxyphenyl)pentanamide], for which the melting point was 75 to 78 °C. In addition, the IC50 with normal human melanocytes (setting [5]) came out at 0.391 µM. Further, the IC50 in the data set with normal human melanocytes (setting [4]) was 0.557 µM. Moreover, in data set [3], the cytotoxicity result is reported as “non-cytotoxic” and the IC50 is 0.14 µM. `COC(=O)[C@H](CC(C)C)NC(=O)CCC(C)c1ccc(O)cc1O` (some centres unmarked) [Compound 20, methyl N-[4-(2,4-dihydroxyphenyl)pentanoyl]leucinate] had a melting point of 63 °C. Besides, the IC50 in the data set on normal human melanocytes (setting [5]) is 1.2 µM. Besides, the IC50 in the data set on normal human melanocytes (setting [4]) amounted to 1.58 µM.

`CCCCc1ccc(O)cc1O` [Lucinol, 4-n-butyl resorcinol, reference compound]: the IC50 in data set [3] was found to be 0.79 µM. Also, the “Comparison of melanin with respect to the solvent (DMSO)” value in data set [1] (effective concentration 500 μM) is recorded as −25%. Take `CCC(C)NC(=O)CCC(C)c1ccc(O)cc1O` (centres unmarked) [Compound 5, N-(butan-2-yl)-4-(2,4-dihydroxyphenyl)pentanamide]: the IC50 in the data set on normal human melanocytes (setting [5]) amounted to 0.391 µM; with normal human melanocytes (setting [4]), 0.447 µM.

As for `CC(C)NC(=O)CCC(C)c1ccc(O)cc1O` (centres unmarked) [Compound 3, 4-(2,4-dihydroxyphenyl)-N-(propan-2-yl)pentanamide], the melting point is 60 to 65 °C and 56 °C. For the same compound, in the data set on normal human melanocytes (setting [4]), the IC50 is 0.617 µM.

Take `CCN(CC)C(=O)CCC(C)c1ccc(O)cc1O` (centres unmarked) [Compound 24, 4-(2,4-dihydroxyphenyl)-N,N-diethylpentanamide]: the IC50 in the data set with normal human melanocytes (setting [4]) amounted to 1.02 µM. Consider `O=C(O)CCc1ccc(O)cc1O` [(C), reference compound], for which the IC50 with normal human melanocytes (setting [6]) was 63.1 µM.

Turning to `CC(CCC(=O)OCCCNC(=O)C1OC(C)(C)OCC1(C)C)c1ccc(O)cc1O` (centres unmarked) [Compound 34, 3-{[(2,2,5,5-tetramethyl-1,3-dioxan-4-yl)carbonyl]amino}propyl 4-(2,4-dihydroxyphenyl)pentanoate], the IC50 in the data set with normal human melanocytes (setting [4]) stood at 2.95 µM. In the case of `CCOC(=O)C(C)NC(=O)CCC(C)c1ccc(O)cc1O` (racemic) [Compound 17, ethyl N-[4-(2,4-dihydroxyphenyl)pentanoyl]-DL-alaninate], in the data set on normal human melanocytes (setting [5]), the IC50 stood at 0.391 µM. Also, in data set [3], the cytotoxicity entry is listed as “non-cytotoxic” and the IC50 worked out at 0.12 µM. `CC(CCC(N)=O)c1ccc(O)cc1O` (centres unmarked) [Compound 10, 4-(2,4-dihydroxyphenyl)pentanamide] came in with a melting point of 54 to 56 °C. The IC50 in the data set on normal human melanocytes (setting [4]) was found to be 1.07 µM. As for `CNC(=O)/C=C/c1ccc(O)cc1O` [(A), reference compound], in the data set with normal human melanocytes (setting [6]), the IC50 was found to be 3.86 µM.

Turning to `CCOC(=O)CN(C)C(=O)CCC(C)c1ccc(O)cc1O` (centres unmarked) [Compound 27, ethyl N-[4-(2,4-dihydroxyphenyl)pentanoyl]-N-methylglycinate], the IC50 in the data set with normal human melanocytes (setting [5]) was determined as 51.3 µM.

These data come from patent publication US11401236B2, “Resorcinol derivatives for their cosmetic use” (L'OREAL, priority 2017, dated 2022).
